In patent publication US9334278B2, “Pyrrolo[2,3-B]pyrazines as SYK inhibitors” (Hoffmann-La Roche Inc., priority 2012, dated 2016):

How the values were obtained:
[1] = system: Human B cell lymphoma cell line Ramos; assay: Ramos Calcium Influx FLIPR Assay; type: cell-based; conditions: Ramos cells, anti-human IgM 10 μg/mL stimulation, read-out: RAMOS_IC50
Protocol: Ramos Calcium Influx FLIPR Assay
Human B cell lymphoma cell line Ramos was cultivated in RPMI-1640 with 10% Fetal Bovine Serum (Invitrogen). Cells were seeded into assay plate and loaded with calcium dye by adding 30 μl of dye loading buffer according to manufacturer's instruction (Beckton Dickinson Calcium Kit, Cat#80500). The cells were then treated with serial diluted compounds for 30 min before stimulation. Baseline fluorescence was recorded for about 20 seconds followed by stimulation with mouse anti-human IgM (10 μg/mL, clone M2E6, Antibody Solutions Inc.) for Ramos cells, and record of the maximal fluorescent counts in each well. Maximal counts divided by baseline counts, defined as fold change from baseline for each well, was used for IC50 calculation.

[2] = system: B cell CD69 up-regulation in human whole blood; assay: B Cell CD69 Up-Regulation Assay in Human Whole Blood; type: cell-based; conditions: anti-human IgM 50 μg/mL for 20 h, CD69hi CD20+ B cells
Protocol: B Cell CD69 Up-Regulation Assay in Human Whole Blood
Human Blood was collected from healthy volunteers into Vacutainers (BD Biosciences, San Jose, Calif.) containing sodium heparin. Test compound was suspended in DMSO and nine half-log serial dilutions were made. The concentration of […] in the assay was 0.5%. 100 μL whole blood was pre-incubated with compound for 30 min and then stimulated with goat F(ab′)2 anti-human IgM (50 μg/mL, Southern Biotech) for 20 h. At the end of the 20 hour incubation, samples were incubated with fluorochrome-conjugated antibodies, PE mouse anti-human CD20 and APC Mouse anti-human CD69 (BD Biosciences), for 30 minutes. Samples were then lysed with Lyse solution (BD) and washed with PBS containing 2% fetal bovine serum (FBS). Fluorescent signals were acquired on flow cytometer LSR II (BD) and data were analyzed by Flow Jo. The percentage of activated (CD69hi) B-cell lymphocytes (CD20+) were determined using un-stimulated (negative control) and stimulated (positive control) wells as reference guidelines. The percentage inhibition was calculated and an IC50 curve was constructed using GraphPad Prism software with sigmoidal curve fitting.

[3] = molecular target: recombinant human SYK360-635 (Spleen Tyrosine Kinase) (Homo sapiens (Human), UniProt P43405); assay: SYK kinase assay (33P filtration, IC50 of SYK inhibition); conditions: read-out: ENZYME_FILTRATION_IC50; SYK 0.5 nM, ATP 20 μM, 33P filtration
Protocol: Determination of IC50 of Spleen Tyrosine Kinase (SYK) inhibition:
SYK kinase assay is a standard kinase assay adapted to a 96 well plate format. This assay is performed in 96-well format for IC50 determination with 8 samples which represented 10 half log dilutions and a 40 μL reaction volume. The assay measures the incorporation of radiolabeled ^33P γATP into an N-terminally biotinylated peptide substrate, derived from naturally occurring phosphoacceptor consensus sequence (Biotin-11aa DY*E). Phosphorylated products were detected upon termination of reactions with EDTA and the addition of Streptavidin coated beads.
BSA: Bovine Serum Albumin Fraction V, fatty acid free (Roche Diagnostics GmbH, Cat. No. 9100221) diluted to a final concentration of 0.1%
Assay Dilution Buffer (ADB): 50 mM HEPES, 0.1 mM EGTA, 0.1 mM Na Vanadate, 0.1 mM (3-glycerophosphate, 10 mM MgCl2, 1 mM DTT, 0.1% BSA, pH 7.5
Bead wash buffer: 10 g/L PBS (Phosphate buffered saline) with 2M NaCl+1% phosphoric acid.
DMSO and the mixture was incubated for 10 min at RT.
The kinase reaction was initiated by the addition of 10 μL 4× substrate cocktail containing the DYE peptide substrate [0 or 5 μM], ATP [20 μM] and ^33PγATP [2 μCi/r×n]. After incubation at 30° C. for 15 min, the reaction was terminated by the transfer of 25 μL of the reaction sample to a 96 well 0.65 μm Millipore MADVNOB membrane/plate containing 200 μL 5 mM EDTA and 20% Streptavidine coated beads in PBS.
The unbound radionucleotides were washed under vacuum with 3×250 μL 2M NaCl; 2×250 μL 2M NaCl+1% phosphoric acid; 1×250 μL H2O. After the last wash membrane/plates were transferred to an adaptor plate, heat dried for 15 min at 60° C., and 50 μL scintillation cocktail was added to each well and 4 h later the amount of radioactivity was counted in a top counter.

IC50 [1] | IC50 [2] | IC50 [3] | Structure (SMILES)
79.7 nM | 1340 nM | 25.1 nM | Cc1cc(Nc2cnc3[nH]cc(C(=O)NC(C)(C)C)c3n2)on1 [Compound I-22, N-tert-butyl-2-(3-methylisoxazol-5-ylamino)-5H-pyrrolo[2,3-b]pyrazine-7-carboxamide]
3620 nM | 630 nM | 117 nM | CC(C)(C)NC(=O)c1c[nH]c2ncc(Nc3ccc(S(C)(=O)=O)nc3)nc12 [Compound I-23, N-tert-butyl-2-(6-(methylsulfonyl)pyridin-3-ylamino)-5H-pyrrolo[2,3-b]pyrazine-7-carboxamide]
213 nM | 433 nM | 71.2 nM | COc1ncc(Nc2cnc3[nH]cc(C(=O)NC(C)(C)C)c3n2)cn1 [Compound I-25, N-tert-butyl-2-(2-methoxypyrimidin-5-ylamino)-5H-pyrrolo[2,3-b]pyrazine-7-carboxamide]
278 nM | 268 nM | 97.5 nM | Cc1nn(C)cc1Nc1cnc2[nH]cc(C(=O)NC(C)(C)C)c2n1 [Compound I-30, N-tert-butyl-2-(1,3-dimethyl-1H-pyrazol-4-ylamino)-5H-pyrrolo[2,3-b]pyrazine-7-carboxamide]
275 nM | 1140 nM | 43.7 nM | Cn1cc2c(n1)CCCN2c1cnc2[nH]cc(C(=O)NC(C)(C)C)c2n1 [Compound I-32, N-tert-butyl-2-(2-methyl-6,7-dihydro-2H-pyrazolo[4,3-b]pyridin-4(5H)-yl)-5H-pyrrolo[2,3-b]pyrazine-7-carboxamide]

The remaining lines, values behind:

Structure (SMILES) | IC50 [1] | IC50 [2] | IC50 [3]
CC(O)c1cccc(Nc2cnc3[nH]cc(C(=O)NC(C)(C)C)c3n2)c1 (stereo not drawn) [Compound I-24, N-tert-butyl-2-(3-(1-hydroxyethyl)phenylamino)-5H-pyrrolo[2,3-b]pyrazine-7-carboxamide] | 93.3 nM | 418 nM | 5.9 nM
CC(N)c1cccc(Nc2cnc3[nH]cc(C(=O)NC(C)(C)C)c3n2)c1 (stereo not drawn) [Compound I-27, 2-(3-(1-aminoethyl)phenylamino)-N-tert-butyl-5H-pyrrolo[2,3-b]pyrazine-7-carboxamide] | 223 nM | 631 nM | 18.8 nM
Cn1ncc2c1CCCN2c1cnc2[nH]cc(C(=O)NC(C)(C)C)c2n1 [Compound I-33, N-tert-butyl-2-(1-methyl-6,7-dihydro-1H-pyrazolo[4,3-b]pyridin-4(5H)-yl)-5H-pyrrolo[2,3-b]pyrazine-7-carboxamide] | 791 nM | 1460 nM | 167 nM
Cc1cc(Nc2nc3c(C(=O)NC(C)(C)C)c[nH]c3nc2C)sn1 [Compound I-36, 3-Methyl-2-(3-methyl-isothiazol-5-ylamino)-5H-pyrrolo[2,3-b]pyrazine-7-carboxylic acid tert-butylamide] | 1250 nM | 8300 nM | 251 nM
